Experimental data: PMC12040169 (PLOS Biology, 2025)

Test: in vitro
Settings: human, hela cells, % viability

SMILES | viability at 28.5 h, 10 µM [%]
COc1ccc2c(c1)C1(CC(=O)N(CC(=O)N(C)OC)C1=O)C(=O)N2CCCCOc1ccccc1 (stereo not drawn) [CBK076032] | 92.6
COc1ccc2c(c1)C1(CC(=O)N(Cc3ccccc3)C1=O)C(=O)N2CC(=O)O (stereo not drawn) [CBK076108] | 92.5
CN1CCN(C(=O)c2ccc(-c3ccc4c(c3)OCO4)nc2NCc2cccnc2)CC1 [CBK076110] | 90.7
O=C(NCCN1CCOCC1)c1ccc(-c2ccco2)nc1NCc1cccnc1 [CBK076112] | 101
Cc1ccccc1-c1ccc(C(=O)NCCc2ccc(S(N)(=O)=O)cc2)c(NCc2cccnc2)n1 [CBK076116] | 98.4
CN(C)C(=O)CN1C(=O)CC2(C1=O)C(=O)N(CC(=O)O)c1ccc(F)cc12 (stereo not drawn) [CBK076119] | 101
Cc1ccccc1-c1ccc(C(=O)N2CCN(C)CC2)c(NCc2cccnc2)n1 [CBK076125] | 93.2
Cc1ccccc1-c1ccc(C(=O)NC2CCCCC2)c(NCc2cccnc2)n1 [CBK076159] | 90.5
CN(C)CCN(C)C(=O)c1ccc(-c2cc3ccccc3o2)nc1NCc1cccnc1 [CBK076160] | 90.8
COCCOCN1C(=O)CC2(C1=O)C(=O)N(CC(=O)O)c1ccc(F)cc12 (stereo not drawn) [CBK076163] | 90.5
Cc1ccccc1-c1ccc(C(=O)Nc2ccc3c(c2)OCO3)c(N2CCN(C(=O)c3ccco3)CC2)n1 [CBK076196] | 101
CS(=O)(=O)c1cccc(-c2cnc(NCCOc3ccccc3)c(C(=O)NCCc3ccccc3)c2)c1 [CBK076201] | 96.5
O=C(NCCN1CCOCC1)c1cc(Br)cnc1N1CCOCC1 [CBK076202] | 104
COc1ccc(OCCNC(=O)c2ccc(-c3ccccc3C)nc2N2CCN(C(=O)c3ccco3)CC2)cc1 [CBK076207] | 85.6
CCN1CCCC1CNC(=O)c1cc(Br)cnc1N1CCOCC1 (stereo not drawn) [CBK076213] | 87.1
O=C(NCCc1c[nH]c2ccccc12)c1cc(Br)cnc1N1CCOCC1 [CBK076224] | 91.7
NS(=O)(=O)c1ccc(CCNC(=O)c2cc(Br)cnc2N2CCOCC2)cc1 [CBK076225] | 85.1
CC(=O)NCCNC(=O)c1cc(Br)cnc1NCCOc1ccccc1 [CBK076232] | 103
O=C(NCc1ccc(F)cc1)c1cc(Br)cnc1N1CCOCC1 [CBK076246] | 89.1
O=C(NCc1ccco1)c1cc(Br)cnc1N1CCOCC1 [CBK076268] | 94.6
COc1ccc(-c2cnc(NCC3CC3)c(C(=O)NCc3ccco3)c2)cc1 [CBK076283] | 96.3

SMILES | viability at 28.5 h, 10 µM [%]
COCCNC(=O)c1cc(-c2cccc(N(C)C)c2)cnc1NCC1CC1 [CBK076288] | 93.9
CNC(=O)c1cccc(NC(=O)c2cc(-c3cccnc3)cnc2NCc2ccc3c(c2)OCO3)c1 [CBK076291] | 89.4
Cc1ccc(C(=O)NCCN2CCOCC2)c(N2CCN(C(=O)c3ccco3)CC2)n1 [CBK076312] | 101
COc1ccc(-c2cnc(NCC3CC3)c(C(=O)N3CCN(C)CC3)c2)cc1 [CBK076327] | 96.6
COc1ccc(-c2cnc(NCCOc3ccccc3)c(C(=O)NCC3COc4ccccc4O3)c2)cc1 (stereo not drawn) [CBK076332] | 97.2
CN(C)C(=O)c1cc(-c2cccc(N(C)C)c2)cnc1NCC1CC1 [CBK076333] | 85.1
Cc1ccc(C(=O)NCCc2ccc(S(N)(=O)=O)cc2)c(N2CCN(C(=O)c3ccco3)CC2)n1 [CBK076345] | 89
COc1ccc(-c2cnc(NCC3CC3)c(C(=O)NCCc3c[nH]c4ccccc34)c2)cc1 [CBK076349] | 96.4
CC(=O)NCCNC(=O)c1cc(-c2cccc(S(C)(=O)=O)c2)cnc1NCC1CC1 [CBK076351] | 93.9
Cc1ccc(C(=O)NCC2COc3ccccc3O2)c(N2CCN(C(=O)c3ccco3)CC2)n1 (stereo not drawn) [CBK076356] | 93.9
CS(=O)(=O)c1cccc(-c2cnc(NCC3CC3)c(C(=O)Nc3ccc4c(c3)OCO4)c2)c1 [CBK076362] | 95.2
Cc1ccc(C(=O)NNCc2ccccc2)c(NCc2cccnc2)n1 [CBK076369] | 88.6
Cc1ccc(C(=O)NCCN2CCOCC2)c(NCCCn2ccnc2)n1 [CBK076371] | 115
Cc1ccc(C(=O)Nc2ccc3c(c2)OCO3)c(N2CCOCC2)n1 [CBK076377] | 92.9
CN(C)C(=O)c1cc(Br)cnc1NCCCn1ccnc1 [CBK076378] | 98
COc1ccc(S(=O)(=O)NCCNC(=O)c2cc(-c3cccnc3)cnc2NCc2ccc3c(c2)OCO3)cc1 [CBK076379] | 101
CCN1CCCC1CNC(=O)c1ccc(C)nc1NCCCn1ccnc1 (stereo not drawn) [CBK076382] | 90.7
Cc1ccc(C(=O)NCc2ccco2)c(NCc2cccnc2)n1 [CBK076383] | 102
Cc1ccc(C(=O)NC2CCCCC2)c(N2CCOCC2)n1 [CBK076388] | 96.5
C=C(C)CNC(=O)c1ccc(C)nc1N1CCN(C(=O)c2ccco2)CC1 [CBK076401] | 94.8
O=C(NCc1ccc(F)cc1)c1cc(Br)cnc1NCc1cccnc1 [CBK076405] | 104

SMILES | viability at 28.5 h, 10 µM [%]
Cc1ccc(C(=O)NCc2ccco2)c(N2CCOCC2)n1 [CBK076410] | 89.9
COc1ccc(S(=O)(=O)NCCNC(=O)c2ccc(-c3cccc(Cl)c3Cl)nc2NCc2cccnc2)cc1 [CBK076436] | 116
COc1ccc(-c2cnc(NCC3CC3)c(C(=O)NCc3ccccc3SC)c2)cc1 [CBK076437] | 110
O=C(NC1CCCCC1)c1cc(Br)cnc1NCc1cccnc1 [CBK076439] | 91
Cc1ccc(C(=O)NCc2cccnc2)c(N2CCN(C(=O)c3ccco3)CC2)n1 [CBK076444] | 83.9
COc1ccc(OCCNC(=O)c2cc(Br)cnc2N(C)C(C)=O)cc1 [CBK076467] | 104
CS(=O)(=O)Nc1ncc(-c2ccco2)cc1C(=O)NCc1nc2ccccc2[nH]1 [CBK076468] | 103
CN(C)C(=O)c1cc(-c2ccccc2)cnc1N(C)S(C)(=O)=O [CBK076473] | 105
COc1ccc(S(=O)(=O)NCCNC(=O)c2cc(Br)cnc2N(C)S(C)(=O)=O)cc1 [CBK076477] | 110
CS(=O)(=O)Nc1ncc(-c2ccco2)cc1C(=O)NCc1ccc(F)cc1 [CBK076479] | 112
CS(=O)(=O)Nc1ncc(-c2ccco2)cc1C(=O)Nc1ccon1 [CBK076512] | 89.6
CCN1CCCC1CNC(=O)c1cc(Br)cnc1N(C)C(C)=O (stereo not drawn) [CBK076524] | 85.2
CC(=O)N(C)c1ncc(Br)cc1C(=O)N(C)C [CBK076533] | 97.1
CS(=O)(=O)Nc1ncc(Br)cc1C(=O)NCc1ccc(F)cc1 [CBK076538] | 89.6
COc1ccc(-c2cnc(NS(C)(=O)=O)c(C(=O)NCc3ccco3)c2)cc1 [CBK076539] | 94.9
CC(=O)N(C)c1ncc(Br)cc1C(=O)NCCc1ccccc1 [CBK076543] | 93.8
COCCNc1nc(-c2ccccc2CO)ccc1C(=O)NCCNC(C)=O [CBK076548] | 101
O=C(NCC(F)(F)F)c1ccc(-c2ccccc2)nc1NCc1cccnc1 [CBK076551] | 95
CC(=O)N(C)c1ncc(Br)cc1C(=O)NCC1COc2ccccc2O1 (stereo not drawn) [CBK076558] | 91.7
COCCNC(=O)c1ccc(-c2ccccc2CO)nc1N1CCOCC1 [CBK076559] | 97.6
C=CCNC(=O)c1ccc(-c2cccc(N(C)C)c2)nc1NCc1cccnc1 [CBK076566] | 91.3

SMILES | viability at 28.5 h, 10 µM [%]
CS(=O)(=O)Nc1ncc(-c2ccco2)cc1C(=O)NCCc1c[nH]c2ccccc12 [CBK076569] | 90.5
CC(=O)N(C)c1nc(-c2cccc(N(C)C)c2)ccc1C(=O)NCCc1ccc(S(N)(=O)=O)cc1 [CBK076578] | 88.8
CC(=O)N(C)c1nc(-c2cccc(N(C)C)c2)ccc1C(=O)NC1CCS(=O)(=O)C1 (stereo not drawn) [CBK076590] | 103
CN(C)CCN(C)C(=O)c1ccc(-c2ccccc2CO)nc1N(C)C [CBK076591] | 95
CC(=O)Nc1cccc(-c2cnc(N(C)S(C)(=O)=O)c(C(=O)NCc3ccc4c(c3)CCO4)c2)c1 [CBK076609] | 99.7
CC(=O)c1ccccc1-c1ccc(C(=O)N2CCN(C)CC2)c(NCC2CC2)n1 [CBK076613] | 92.8
CC(=O)c1ccc(-c2ccc(C(=O)NCCc3ccc(S(N)(=O)=O)cc3)c(N(C)C(C)=O)n2)s1 [CBK076621] | 91.9
CC(=O)c1ccc(-c2ccc(C(=O)NCC3COc4ccccc4O3)c(N(C)C(C)=O)n2)s1 (stereo not drawn) [CBK076637] | 114
CCC1CCCCN1C(=O)c1ccc(C(C)(C)C)cc1 (stereo not drawn) [CBK076644] | 103
CCC1CCCCN1C(=O)c1nc2ccccc2s1 (stereo not drawn) [CBK076645] | 101
COc1ccc([C@@]23CC[C@@H](NC(=O)c4ccc5c(c4)OC(F)(F)O5)C[C@@H]2N(C)CC3)cc1OC [CBK076658T] | 108
CCSc1nnc(-c2cccnc2)n1Cc1ccccc1 [CBK076664] | 84.4
CSc1nnc(-c2ccccc2O)n1CCc1ccccc1 [CBK076668] | 96.8
COc1ccc(C(NC(=O)[C@H]2CCCN2C(=O)COc2ccccc2)c2ccccc2C)cn1 (stereo partly drawn) [CBK076682] | 96.1
CCC1CCCCN1C(=O)c1cncc(Br)c1 (stereo not drawn) [CBK076699] | 107
CCSc1nnc(-c2ccc([N+](=O)[O-])cc2)n1CC(C)C [CBK076724T] | 108
COc1ccc2[nH]c3c(c2c1)CCN(C(=O)CNCc1ccc(OC)c(OC)c1)C31CCN(CCOc2ccccc2)C1 (stereo not drawn) [CBK076736T] | 75
CCC1CCCCN1C(=O)c1cccc(C)n1 (stereo not drawn) [CBK076750] | 92.4
CCC1(CC)C(=O)N=C(C(C)(C)C)NC1=O [CBK076759] | 88.8
CSc1nnc(-c2cccc(C)c2)n1CC(C)C [CBK076764T] | 89.1
COc1ncccc1C(NC(=O)C1CCN(C(=O)OCc2ccccc2)CC1)c1ccccc1C (stereo not drawn) [CBK076802] | 90.8
